According to US20250011352A1, “SOLID FORMS” (priority 2023, published 2025):
Where a name gives a salt, the structure may show the parent alone.

Experiment: Dynamic Vapor Sorption (DVS) hygroscopicity
Assay type: physicochemical
Settings: from 0 to 90% RH at 25° C.
Description: Dynamic Vapor Sorption (DVS) was used to study hygroscopicity on Model Q5000 SA (TA Instruments, New Castle, DE). A sample (1-10 mg) was placed in an aluminum pan and loaded on the sample side of the twin pan balance. The water sorption and desorption were studied as a function of relative humidity (RH) at 25° C. in 10% RH increments from 0% RH to 90% RH and then back to 0%. […] Data analysis was performed using Universal Analysis 2000 Version 4.7A (TA Instruments, New Castle, DE).
In the case of Cc1cc(CC(=O)O)c(C(C)(C)CC(=O)N(c2nn(CC(F)(F)F)c3c(-c4ccc(C#CC(C)(C)S(C)(=O)=O)nc4[C@H](Cc4cc(F)cc(F)c4)NC(=O)Cn4nc(C(F)(F)F)c5c4C(F)(F)[C@@H]4C[C@H]54)ccc(Cl)c23)S(C)(=O)=O)c(OP(=O)(O)O)c1 [Compound 1 maleate], the “water uptake (DVS)” value is reported as “about 2.5%”.
In the case of Cc1cc(CC(=O)O)c(C(C)(C)CC(=O)N(c2nn(CC(F)(F)F)c3c(-c4ccc(C#CC(C)(C)S(C)(=O)=O)nc4[C@H](Cc4cc(F)cc(F)c4)NC(=O)Cn4nc(C(F)(F)F)c5c4C(F)(F)[C@@H]4C[C@H]54)ccc(Cl)c23)S(C)(=O)=O)c(OP(=O)(O)O)c1 [Compound 1, crystalline Form I], the “water uptake (DVS)” value is reported as “about 4%”.
With Cc1cc(CC(=O)O)c(C(C)(C)CC(=O)N(c2nn(CC(F)(F)F)c3c(-c4ccc(C#CC(C)(C)S(C)(=O)=O)nc4[C@H](Cc4cc(F)cc(F)c4)NC(=O)Cn4nc(C(F)(F)F)c5c4C(F)(F)[C@@H]4C[C@H]54)ccc(Cl)c23)S(C)(=O)=O)c(OP(=O)(O)O)c1 [Compound 1 succinate] the “water uptake (DVS)” value was “about 1.7%”.
In the case of Cc1cc(CC(=O)O)c(C(C)(C)CC(=O)N(c2nn(CC(F)(F)F)c3c(-c4ccc(C#CC(C)(C)S(C)(=O)=O)nc4[C@H](Cc4cc(F)cc(F)c4)NC(=O)Cn4nc(C(F)(F)F)c5c4C(F)(F)[C@@H]4C[C@H]54)ccc(Cl)c23)S(C)(=O)=O)c(OP(=O)(O)O)c1 [Compound 1, crystalline Form III], the “water uptake (DVS)” value is reported as “about 1.6%”.
For Cc1cc(CC(=O)O)c(C(C)(C)CC(=O)N(c2nn(CC(F)(F)F)c3c(-c4ccc(C#CC(C)(C)S(C)(=O)=O)nc4[C@H](Cc4cc(F)cc(F)c4)NC(=O)Cn4nc(C(F)(F)F)c5c4C(F)(F)[C@@H]4C[C@H]54)ccc(Cl)c23)S(C)(=O)=O)c(OP(=O)(O)O)c1 [Compound 1, Material A], the “water uptake (DVS)” value was “about 4.6%”.
With Cc1cc(CC(=O)O)c(C(C)(C)CC(=O)N(c2nn(CC(F)(F)F)c3c(-c4ccc(C#CC(C)(C)S(C)(=O)=O)nc4[C@H](Cc4cc(F)cc(F)c4)NC(=O)Cn4nc(C(F)(F)F)c5c4C(F)(F)[C@@H]4C[C@H]54)ccc(Cl)c23)S(C)(=O)=O)c(OP(=O)(O)O)c1 [Compound 1, crystalline Form II] the “water uptake (DVS)” value was “about 1%”.
For Cc1cc(CC(=O)OC(C)(C)C)c(C(C)(C)CC(=O)N(c2nn(CC(F)(F)F)c3c(-c4ccc(C#CC(C)(C)S(C)(=O)=O)nc4[C@H](Cc4cc(F)cc(F)c4)NC(=O)Cn4nc(C(F)(F)F)c5c4C(F)(F)[C@@H]4C[C@H]54)ccc(Cl)c23)S(C)(=O)=O)c(OP(=O)(OC(C)(C)C)OC(C)(C)C)c1 [Compound 2, crystalline Form I], the “water uptake (DVS)” value was “about 2.7%”.

Experiment: Atropisomer interconversion detected by 19F-NMR in deuterated DMSO
Assay type: physicochemical
Settings: deuterated DMSO solution, deuterated DMSO at 25° C.; read-out: half-life of conversion from the major to the minor atropisomer for the biaryl rotation (converted)
Description: Compound 1 has two restricted rotational axes, resulting in 4 atropisomers (see FIG. 1) that may be detected by ^19F-NMR.
^19F Nuclear Magnetic Resonance spectra were collected on a Varian 400-MR 400 MHz instrument with 7620AS sample changer. Some of the parameters were adjusted as follows: number of scans: 1; spin: 0 (off); steady state scans: 0 (off). Samples were prepared as a solution of 20 mg in 0.75 mL of dimethyl sulfoxide-d6. The time from solvent addition to end of data acquisition should be ≤5 minutes. Off-line analysis was conducted using MNova software.
Cc1cc(CC(=O)O)c(C(C)(C)CC(=O)N(c2nn(CC(F)(F)F)c3c(-c4ccc(C#CC(C)(C)S(C)(=O)=O)nc4[C@H](Cc4cc(F)cc(F)c4)NC(=O)Cn4nc(C(F)(F)F)c5c4C(F)(F)[C@@H]4C[C@H]54)ccc(Cl)c23)S(C)(=O)=O)c(OP(=O)(O)O)c1 [Compound 1, 2-(2-(4-(N-(4-chloro-7-(2-((S)-1-(2-((3bS,4aR)-5,5-difluoro-3-(trifluoromethyl)-3b,4,4a,5-tetrahydro-1H-cyclopropa[3,4]cyclopenta[1,2-c]pyrazol-1-yl)acetamido)-2-(3,5-difluorophenyl)ethyl)-6-(3-methyl-3-(methylsulfonyl)but-1-yn-1-yl)pyridin-3-yl)-1-(2,2,2-trifluoroethyl)-1H-indazol-3-yl)methylsulfonamido)-2-methyl-4-oxobutan-2-yl)-5-methyl-3-(phosphonooxy)phenyl)acetic acid] gave a half-life at 26.7 mg/mL of roughly 71.6 h.

Same assay, conditions: deuterated DMSO solution, deuterated DMSO at 25° C.; read-out: half-life of interconversion at the 2nd rotational axis
With Cc1cc(CC(=O)O)c(C(C)(C)CC(=O)N(c2nn(CC(F)(F)F)c3c(-c4ccc(C#CC(C)(C)S(C)(=O)=O)nc4[C@H](Cc4cc(F)cc(F)c4)NC(=O)Cn4nc(C(F)(F)F)c5c4C(F)(F)[C@@H]4C[C@H]54)ccc(Cl)c23)S(C)(=O)=O)c(OP(=O)(O)O)c1 [Compound 1, 2-(2-(4-(N-(4-chloro-7-(2-((S)-1-(2-((3bS,4aR)-5,5-difluoro-3-(trifluoromethyl)-3b,4,4a,5-tetrahydro-1H-cyclopropa[3,4]cyclopenta[1,2-c]pyrazol-1-yl)acetamido)-2-(3,5-difluorophenyl)ethyl)-6-(3-methyl-3-(methylsulfonyl)but-1-yn-1-yl)pyridin-3-yl)-1-(2,2,2-trifluoroethyl)-1H-indazol-3-yl)methylsulfonamido)-2-methyl-4-oxobutan-2-yl)-5-methyl-3-(phosphonooxy)phenyl)acetic acid] the half-life at 26.7 mg/mL was roughly 0.117 h.
